The text below walks through data of US20120270770A1, “Anti-angiogenic peptides and their uses” (priority 2010, published 2012).

The test system of test [1] is ulcerative colitis / IBD and subsequent colon cancer in IL-10 deficient mice. Put plainly: Murine model of ulcerative colitis: IL-10 deficient mice. It counts as in vivo, mouse. From the text:
An IL-10 deficient strain of mouse was used in the study to determine the ability of JC15-10N (a novel anti-inflammatory molecule) to limit their developing IBD and subsequent colon cancer.
The Wild Type and IL-10 deficient mouse strains used in this study was obtained from Jackson Laboratories and are designated as:
The following groups of animals comprised the present experiment:
Controls: • 1. Controls (129 SvEv 129^−/− untreated) • 2. Controls (129 SvEv 129^−/− Sham/Saline Only) • 3. 129 SvEv Wild-type Controls (untreated) • 4. 129 SvEv Wild-type (Sham/Saline Only)
Treatments with JC15-10N: • 1. Pre-inflammatory (129 SvEv 129^−/−-Prevention-1 injection/week) • 2. Frank inflammatory (129 SvEv 129^−/−-Treatment-1 injection/week) • 3. Pre-inflammatory (129 SvEv 129^−/−-Prevention-1* injections/week) • 4. Frank-inflammatory (129 SvEv 129^−/−-Treatment-1* injections/week) • 5. 129 SvEv Wild-type (Prevention-1 injection/week) • 6. 129 SvEv Wild-type (Treatment-1 injection/week) • 7. 129 SvEv Wild-type (Prevention-1* injections/week) • 8. 129 SvEv Wild-type (Treatment-1* injections/week) • 9 animals/group X 12 groups (including controls)=108 mice×2 repetitions=216 mice; 1 injection/week=0.5 mg/kg subQ and 1* injection/week=5.0 mg/kg subQ injection/week. • In order to encourage inflammation, prior to the start of the experiment, pathogenic murine strains of E. coli and E. faecalis bacteria were administered to the mice in the appropriate treatment groups via oral and anal gavages, designated EC/EF.
Pre-inflammatory (4 wks.) and frank-inflammatory animals (6 wks.-8 wks) were treated with JC15-10N via subcutaneous injections every week for 14 weeks. The compound was diluted in saline to obtain treatment doses of 0.5 and 5.0 mg/kg of body weight respectively and was delivered subcutaneously using tuberculin needles. As controls, some animals were injected with saline only or remained uninjected during the course of the experiment. The procedure described by Hem and coworkers (Laboratory Animals Ltd. 1998. V 32. 364-368) was used to collect 100 micro-liters of blood from the lateral saphenous vein of all test animals once per week over the 14 weeks of peptide therapy. Blood serum was analyzed for changes in the levels of pro-inflammatory and anti-inflammatory cytokines over the 14-week treatment period. At the end of the 14-week treatment period animals were euthanized using a CO2 chamber and flushing the peritoneum with PBS will collect peritoneal lavage fluid. Colons were removed and flushed separately with PBS. Cytokine levels in the peritoneal lavage fluids and colonic fluids of all animals were compared. Following colonic flushes; colons were splayed and examined for inflammatory lesions. Lesions were excised with scissors and the remainder of the colon rolled into gut rolls. […]

Test [2] has as its system Feline Immunodeficiency virus FIV. Briefly: Treatment of a lion infected with FIV. It counts as in vivo. Conditions: weekly 70 mg I.M injections. The text has this:
Nasty is a male lion in North Carolina Zoological Park. He was diagnosed to suffer Feline Immunodeficiency virus FIV. FIV attacks the immune system of cats, much like the human immunodeficiency virus (HIV) attacks the immune system of human beings. FIV infects many cell types in its host, including CD4+ and CD8+ T lymphocytes, B lymphocytes, and macrophages. FIV eventually leads to debilitation of the immune system in its feline hosts by the infection and exhaustion of T-helper (CD4+) cells.
Nasty was treated weekly with 70 mg I.M injections of JC15-10N. […] It can be seen that starting of peptide treatment stabilized the CD4+ cell counts.

Test [3] has as its system Stage IV pancreatic cancer. Briefly: Treatment of a patient with Stage IV pancreatic cancer. It counts as in vivo, human. Conditions: one patient. On the procedure: A diabetic since 12/01 was diagnosed with Stage IV pancreatic cancer in May 2002 with metastatic diseases in their liver. Median survival time of patients with Stage IV pancreatic cancer is 4.5 months. Median survival time of patients with Stage IV pancreatic cancer when treated with gemcitabine is 4.8 months. The longest anyone lived on gemcitabine treatment has been 19 months.
The patient of this case started JC15-10N peptide treatment on August 2002. The patient was given 0.5 mg/kg peptide sub-cutaneously. The patient weighted 128 lbs. and therefore they received 29 mg/injection per week. […] After receiving the peptide for more than 19 months, the patient was doing fine. The patient passed away from unrelated causes on July 2004.

The mark [4] stands for this setting: treated IL-10−/− mice vs control IL-10−/− receiving no treatment.

As for FAKKFAKKFK [JC15-10N], the “protective effect in IL-10 deficient mice” value in test [1] (0.5 and 5.0 mg/kg subQ weekly, 14 weeks, preliminary data, 0.5 mg/kg somewhat better than 5.0 mg/kg) is given as “profound protective effect”. Further, in test [1] (setting [4]), the colitis result is “significant reduction”, the “presence of advanced disease” value is “significant reduction” and the “subsequent development of colon cancer” value is “significant reduction”. Besides, in test [2], the “absolute CD4+ cell counts” value was “stabilized”, the “absolute CD8+ cell counts” value is “prevented the decrease” and the “weight of the lion” value is reported as “began to rise immediately”. Further, the “need for diabetic medication (indicating primary tumor regressing)” value in test [3] (0.5 mg/kg sub-cutaneously per week) is “required no more diabetic medication”. The “metastatic disease in the liver” value in test [3] (0.5 mg/kg sub-cutaneously, 29 mg/injection per week) is “diminished significantly”. Besides, the “time on peptide with the patient doing fine” value in test [3] (Stage IV pancreatic cancer, 0.5 mg/kg sub-cutaneously per week) is recorded as “more than 19 months”.
